Results reported in patent US9777003B2, “Tricyclic heterocycles as bet protein inhibitors” (Incyte Corporation, priority 2013, dated 2017).
Where a name gives a salt, the structure may show the parent alone.

Columns and labels:
BRD4-BD1 = BRD4-BD1 (Homo sapiens (Human), UniProt O60885); assay: BRD4 AlphaScreen assay, BRD4-BD1; type: binding; settings: biotin-labeled tetra-acetylated histone H4 peptide, 75 min, room temperature, read-out: BRD4 BD-1 enzyme IC50
Method: (§1) BRD4-BD1 and BRD4-BD2 assays were conducted in white 384-well polystyrene plate in a final volume of 20 μL for BD1 and 40 μL for BD2. Inhibitors were first serially diluted in DMSO and added to the plate wells before the addition of other reaction components. The final concentration of DMSO in the assay was 1.25% (BD1) and 0.83% (BD2). The assays were carried out at room temperature for 75 min. in the assay buffer (50 mM HEPES, pH 7.4, 100 mM NaCl, 0.05% CHAPS, 0.01% BSA), containing 50 nM Biotin-labeled tetra-acetylated histone H4 peptide (H4Ac4), 3.8 nM (BRD4-BD1, BPS Bioscience #31040) or 20 nM (BRD4-BD2, BPS Bioscience #31041). The reaction followed by the addition of 20 μL of assay buffer supplemented with Streptavidin donor beads (PerkinElmer 6760002) and GSH Acceptor beads (PerkinElmer-AL109C) at 4 μg/mL under reduced light. After plate sealing, the plate was incubated in the dark at room temperature for 75 min. before reading on a PHERAstar FS plate reader (BMG Labtech). IC50 determination was performed by fitting the curve of percent control activity versus the log of the inhibitor concentration using the GraphPad Prism 5.0 software.

BRD4-BD2 = BRD4-BD2 (Homo sapiens (Human), UniProt O60885); assay: BRD4 AlphaScreen assay, BRD4-BD2; type: binding; settings: biotin-labeled tetra-acetylated histone H4 peptide, 75 min, room temperature, read-out: BRD4 BD-2 enzyme IC50
Method: as §1

Cc1cc2c(ccc3nnc(C)n32)n1Cc1cccc(CN(C)CCO)c1 [Example 37, 2-[{3-[(1,7-dimethyl-6H-pyrrolo[2,3-e][1,2,4]triazolo[4,3-a]pyridin-6-yl)methyl]benzyl}(methyl)amino]ethanol]
IC50 (BRD4-BD1): 100 to 1000 nM | IC50 (BRD4-BD2): ≤ 100 nM

Cc1cc2c(ccc3nnc(C)n32)n1Cc1cccc(CN2CCOCC2)c1 [Example 38, 1,7-dimethyl-6-[3-(morpholin-4-ylmethyl)benzyl]-6H-pyrrolo[2,3-e][1,2,4]triazolo[4,3-a]pyridine]
IC50 (BRD4-BD1): 100 to 1000 nM | IC50 (BRD4-BD2): ≤ 100 nM

Cc1cc2c(ccc3nnc(C)n32)n1Cc1cccc(CN[C@H]2C[C@H](O)C2)c1 [Example 39, (1r,3r)-3-((3-((1,7-dimethyl-6H-pyrrolo[2,3-e][1,2,4]triazolo[4,3-a]pyridin-6-yl)methyl)benzyl)amino)cyclobutanol]
IC50 (BRD4-BD1): 100 to 1000 nM | IC50 (BRD4-BD2): ≤ 100 nM

Cc1cc2c(ccc3nnc(C)n32)n1Cc1cccc(CN(C)C)c1 [Example 40, 1-{3-[(1,7-dimethyl-6H-pyrrolo[2,3-e][1,2,4]triazolo[4,3-a]pyridin-6-yl)methyl]phenyl}-N,N-dimethylmethanamine]
IC50 (BRD4-BD1): ≤ 100 nM | IC50 (BRD4-BD2): ≤ 100 nM

CNCc1cccc(Cn2c(C)cc3c2ccc2nnc(C)n23)c1 [Example 41, 1-{3-[(1,7-dimethyl-6H-pyrrolo[2,3-e][1,2,4]triazolo[4,3-a]pyridin-6-yl)methyl]phenyl}-N-methylmethanamine]
IC50 (BRD4-BD1): ≤ 100 nM | IC50 (BRD4-BD2): ≤ 100 nM

CCNCc1cccc(Cn2c(C)cc3c2ccc2nnc(C)n23)c1 [Example 42, N-{3-[(1,7-dimethyl-6H-pyrrolo[2,3-e][1,2,4]triazolo[4,3-a]pyridin-6-yl)methyl]benzyl}ethanamine]
IC50 (BRD4-BD1): ≤ 100 nM | IC50 (BRD4-BD2): ≤ 100 nM

CCNC(=O)Nc1cccc(Cn2c(C)cc3c2ccc2nnc(C)n23)c1 [Example 43, N-{3-[(1,7-dimethyl-6H-pyrrolo[2,3-e][1,2,4]triazolo[4,3-a]pyridin-6-yl)methyl]phenyl}-N′-ethylurea Trifluoroacetate Salt]
IC50 (BRD4-BD1): 100 to 1000 nM | IC50 (BRD4-BD2): ≤ 100 nM

Cc1cc2c(ccc3nnc(C)n32)n1Cc1cccc(NC(N)=O)c1 [Example 44, N-{3-[(1,7-dimethyl-6H-pyrrolo[2,3-e][1,2,4]triazolo[4,3-a]pyridin-6-yl)methyl]phenyl}urea]
IC50 (BRD4-BD1): 100 to 1000 nM | IC50 (BRD4-BD2): ≤ 100 nM

Cc1cc2c(ccc3nnc(C)n32)n1Cc1cccc(CN2CCCC2)c1 [Example 45, 1,7-dimethyl-6-[3-(pyrrolidin-1-ylmethyl)benzyl]-6H-pyrrolo[2,3-e][1,2,4]triazolo[4,3-a]pyridine]
IC50 (BRD4-BD1): ≤ 100 nM | IC50 (BRD4-BD2): ≤ 100 nM

Cc1cc2c(ccc3nnc(C)n32)n1Cc1cccc(CN2CCCCC2)c1 [Example 46, 1,7-dimethyl-6-[3-(piperidin-1-ylmethyl)benzyl]-6H-pyrrolo[2,3-e][1,2,4]triazolo[4,3-a]pyridine]
IC50 (BRD4-BD1): ≤ 100 nM | IC50 (BRD4-BD2): ≤ 100 nM

Cc1cc2c(ccc3nnc(C)n32)n1Cc1cccc(CN2CCN(C)CC2)c1 [Example 47, 1,7-dimethyl-6-{3-[(4-methylpiperazin-1-yl)methyl]benzyl}-6H-pyrrolo[2,3-e][1,2,4]triazolo[4,3-a]pyridine]
IC50 (BRD4-BD1): 100 to 1000 nM | IC50 (BRD4-BD2): ≤ 100 nM

Cc1cc2c(ccc3nnc(C)n32)n1Cc1cccc(CN2CCNCC2)c1 [Example 48, 1,7-dimethyl-6-[3-(piperazin-1-ylmethyl)benzyl]-6H-pyrrolo[2,3-e][1,2,4]triazolo[4,3-a]pyridine]
IC50 (BRD4-BD1): 100 to 1000 nM | IC50 (BRD4-BD2): ≤ 100 nM

Cc1cc2c(ccc3nnc(C)n32)n1Cc1ccc(CO)cc1 [Example 49, {4-[(1,7-dimethyl-6H-pyrrolo[2,3-e][1,2,4]triazolo[4,3-a]pyridin-6-yl)methyl]phenyl}methanol]
IC50 (BRD4-BD1): 100 to 1000 nM | IC50 (BRD4-BD2): ≤ 100 nM

Cc1cc2c(ccc3nnc(C)n32)n1Cc1ccc(CN2CCC2)cc1 [Example 50, 6-[4-(azetidin-1-ylmethyl)benzyl]-1,7-dimethyl-6H-pyrrolo[2,3-e][1,2,4]triazolo[4,3-a]pyridine]
IC50 (BRD4-BD1): ≤ 100 nM | IC50 (BRD4-BD2): ≤ 100 nM

Cc1cc2c(ccc3nnc(C)n32)n1Cc1ccc(CN2CCCC2)cc1 [Example 51, 1,7-dimethyl-6-[4-(pyrrolidin-1-ylmethyl)benzyl]-6H-pyrrolo[2,3-e][1,2,4]triazolo[4,3-a]pyridine]
IC50 (BRD4-BD1): 100 to 1000 nM | IC50 (BRD4-BD2): 100 to 1000 nM

Cc1cc2c(ccc3nnc(C)n32)n1Cc1ccc(CN2CC(O)C2)cc1 [Example 52, 1-{4-[(1,7-dimethyl-6H-pyrrolo[2,3-e][1,2,4]triazolo[4,3-a]pyridin-6-yl)methyl]benzyl}azetidin-3-ol]
IC50 (BRD4-BD1): 100 to 1000 nM | IC50 (BRD4-BD2): 100 to 1000 nM

Cc1cc2c(ccc3nnc(C)n32)n1Cc1ccc(CN(C)C)cc1 [Example 53, 1-{4-[(1,7-dimethyl-6H-pyrrolo[2,3-e][1,2,4]triazolo[4,3-a]pyridin-6-yl)methyl]phenyl}-N,N-dimethylmethanamine]
IC50 (BRD4-BD1): 100 to 1000 nM | IC50 (BRD4-BD2): 100 to 1000 nM

COC1CN(Cc2cccc(Cn3c(C)cc4c3ccc3nnc(C)n34)c2)C1 [Example 54, 6-{3-[(3-methoxyazetidin-1-yl)methyl]benzyl}-1,7-dimethyl-6H-pyrrolo[2,3-e][1,2,4]triazolo[4,3-a]pyridine]
IC50 (BRD4-BD1): 100 to 1000 nM | IC50 (BRD4-BD2): ≤ 100 nM

Cc1nc2c(ccc3nnc(C)n32)n1Cc1ccccc1 [Example 55, 3-benzyl-2,8-dimethyl-3H-imidazo[4,5-e][1,2,4]triazolo[4,3-a]pyridine]
IC50 (BRD4-BD1): 100 to 1000 nM | IC50 (BRD4-BD2): ≤ 100 nM

Cc1nnc2ccc3c(cc(CO)n3Cc3ccccc3)n12 [Example 56, (6-benzyl-1-methyl-6H-pyrrolo[2,3-e][1,2,4]triazolo[4,3-a]pyridin-7-yl)methanol]
IC50 (BRD4-BD1): 100 to 1000 nM | IC50 (BRD4-BD2): ≤ 100 nM

Cc1nnc2ccc3c(cc(Cn4ccnc4)n3Cc3ccccc3)n12 [Example 57, 6-benzyl-7-(1H-imidazol-1-ylmethyl)-1-methyl-6H-pyrrolo[2,3-e][1,2,4]triazolo[4,3-a]pyridine]
IC50 (BRD4-BD1): 1000 to 10000 nM | IC50 (BRD4-BD2): 100 to 1000 nM

Cc1nnc2ccc3c(cc(C(N)=O)n3Cc3ccccc3)n12 [Example 58, 6-benzyl-1-methyl-6H-pyrrolo[2,3-e][1,2,4]triazolo[4,3-a]pyridine-7-carboxamide]
IC50 (BRD4-BD1): ≤ 100 nM | IC50 (BRD4-BD2): ≤ 100 nM

CCNC(=O)c1cc2c(ccc3nnc(C)n32)n1Cc1ccccc1 [Example 59, 6-benzyl-N-ethyl-1-methyl-6H-pyrrolo[2,3-e][1,2,4]triazolo[4,3-a]pyridine-7-carboxamide]
IC50 (BRD4-BD1): ≤ 100 nM | IC50 (BRD4-BD2): ≤ 100 nM

Cc1nnc2ccc3c(cc(C(=O)N4CC(C#N)C4)n3Cc3ccccc3)n12 [Example 60, 1-[(6-benzyl-1-methyl-6H-pyrrolo[2,3-e][1,2,4]triazolo[4,3-a]pyridin-7-yl)carbonyl]azetidine-3-carbonitrile]
IC50 (BRD4-BD1): 100 to 1000 nM | IC50 (BRD4-BD2): ≤ 100 nM

Cc1nnc2ccc3c(cc(CCO)n3Cc3ccccc3)n12 [Example 61, 2-(6-benzyl-1-methyl-6H-pyrrolo[2,3-e][1,2,4]triazolo[4,3-a]pyridin-7-yl)ethanol]
IC50 (BRD4-BD1): 1000 to 10000 nM | IC50 (BRD4-BD2): 100 to 1000 nM

Cc1nnc2ccc3c(cc(-c4ccn[nH]4)n3Cc3ccccc3)n12 [Example 62, 6-benzyl-1-methyl-7-(1H-pyrazol-5-yl)-6H-pyrrolo[2,3-e][1,2,4]triazolo[4,3-a]pyridine]
IC50 (BRD4-BD1): ≤ 100 nM | IC50 (BRD4-BD2): ≤ 100 nM

Cc1nnc2ccc3c(cc(-c4cn[nH]c4)n3Cc3ccccc3)n12 [Example 63, 6-benzyl-1-methyl-7-(1H-pyrazol-4-yl)-6H-pyrrolo[2,3-e][1,2,4]triazolo[4,3-a]pyridine]
IC50 (BRD4-BD1): ≤ 100 nM | IC50 (BRD4-BD2): ≤ 100 nM

Cc1nnc2ccc3c(cc(-c4cnn(CC#N)c4)n3Cc3ccccc3)n12 [Example 64, [4-(6-benzyl-1-methyl-6H-pyrrolo[2,3-e][1,2,4]triazolo[4,3-a]pyridin-7-yl)-1H-pyrazol-1-yl]acetonitrile]
IC50 (BRD4-BD1): ≤ 100 nM | IC50 (BRD4-BD2): ≤ 100 nM

Cc1nnc2ccc3c(cc(-c4ccn(CC#N)n4)n3Cc3ccccc3)n12 [Example 65, [3-(6-benzyl-1-methyl-6H-pyrrolo[2,3-e][1,2,4]triazolo[4,3-a]pyridin-7-yl)-1H-pyrazol-1-yl]acetonitrile]
IC50 (BRD4-BD1): ≤ 100 nM | IC50 (BRD4-BD2): ≤ 100 nM

Cc1nnc2ccc3c(cc(-c4cscn4)n3Cc3ccccc3)n12 [Example 66, 6-benzyl-1-methyl-7-(1,3-thiazol-4-yl)-6H-pyrrolo[2,3-e][1,2,4]triazolo[4,3-a]pyridine]
IC50 (BRD4-BD1): ≤ 100 nM | IC50 (BRD4-BD2): ≤ 100 nM

Cc1nnc2ccc3c(cc(-c4nccs4)n3Cc3ccccc3)n12 [Example 67, 6-benzyl-1-methyl-7-(1,3-thiazol-2-yl)-6H-pyrrolo[2,3-e][1,2,4]triazolo[4,3-a]pyridine]
IC50 (BRD4-BD1): ≤ 100 nM | IC50 (BRD4-BD2): ≤ 100 nM

Cc1nnc2ccc3c(cc(-c4ccccn4)n3Cc3ccccc3)n12 [Example 68, 6-benzyl-1-methyl-7-pyridin-2-yl-6H-pyrrolo[2,3-e][1,2,4]triazolo[4,3-a]pyridine]
IC50 (BRD4-BD1): 100 to 1000 nM | IC50 (BRD4-BD2): ≤ 100 nM

Cc1nnc2ccc3c(cc(-c4cncs4)n3Cc3ccccc3)n12 [Example 69, 6-benzyl-1-methyl-7-(1,3-thiazol-5-yl)-6H-pyrrolo[2,3-e][1,2,4]triazolo[4,3-a]pyridine]
IC50 (BRD4-BD1): 100 to 1000 nM | IC50 (BRD4-BD2): ≤ 100 nM
